Test results taken from patent publication US20120225777A1, “Azolylmethyloxiranes, Their Use for Controlling Phytopathogenic Fungi and Compositions Comprising Them” (BASF SE, priority 2006, published 2012).

Assays:
[1] = system: Pyrenophora [syn. Drechslera] teres; assay: Activity against net blotch of barley caused by Pyrenophora teres, 1 day protective application (Pymte P1), greenhouse; assay type: in vivo, Pyrenophora teres on barley; conditions: Comparative Example 2, Table 10, barley seedlings, 6 days, untreated 90
Experimental: (§1) The active compounds were prepared separately or jointly as a stock solution comprising 25 mg of active compound which was made up to 10 ml using a mixture of acetone and/or DMSO and the emulsifier Wettol EM 31 (wetting agent having emulsifying and dispersing action based on ethoxylated alkylphenols) in a volume ratio of solvent/emulsifier of 99:1. The mixture was then made up to 100 ml with water. This stock solution was diluted with the solvent/emulsifier/water mixture described to give the concentration of active compounds stated below.
Leaves of potted barley seedlings were sprayed to runoff point with an aqueous suspension having the active compound concentration stated below. 24 hours after the spray coating had dried on, the test plants were inoculated with an aqueous spore suspension of Pyrenophora [syn. Drechslera] teres, the net blotch pathogen. The test plants were then placed in a greenhouse at temperatures between 20 and 24° C. and at 95 to 100% relative atmospheric humidity. After 6 days, the extent of the development of the disease was determined visually in % infection of the entire leaf area.

Sphaerotheca fuliginea = assay: Activity against mildew on cucumber leaves caused by Sphaerotheca fuliginea, protective application (Sphrfu P1), greenhouse; assay type: in vivo; conditions: Comparative Example 1, Table 9, cucumber seedlings, 7 days, untreated 90
Experimental: as §1
Leaves of potted cucumber seedlings were, at the cotyledon stage, sprayed to runoff point with an aqueous suspension having the active compound concentration stated below. 20 hours after the spray coating had dried on, the plants were inoculated with an aqueous spore suspension of mildew of cucumber (Sphaerotheca fuliginea). The plants were then cultivated in a greenhouse at temperatures between 20 and 24° C. and 60 to 80% relative atmospheric humidity for 7 days. The extent of the mildew development was then determined visually in % infection of the cotyledon area.

SMILES | Infection in % at 4 ppm for Pyrnte P1 [1] [%] | Infection in % at 63 ppm for Sphrfu P1 (Sphaerotheca fuliginea) [%]
Fc1cc(F)c([C@@]2(Cn3cncn3)O[C@@H]2c2ccccc2Cl)cc1F (racemic) [Compound 8.6] | 40 | –
Cc1ccccc1[C@H]1O[C@]1(Cn1cncn1)c1cc(F)c(F)cc1F (racemic) [Compound 8.7] | – | 0
Cc1ccccc1[C@H]1O[C@]1(Cn1cncn1)c1ccc(F)cc1F [B 255 from EP-A 0 421 125] | – | 90
Fc1ccc([C@@]2(Cn3cncn3)O[C@@H]2c2ccccc2Cl)cc1 [Comp. 8 of EP-A 0 196 038] | 90 | –
